Among the data in patent US8367668B2, “Pyridazinone derivatives” (Merck Patent Gesellschaft mit Beschränkter Haftung, priority 2007, dated 2013) are IC50 values, retold here.

T1 sequence (P08581 974-1390 limits assumed): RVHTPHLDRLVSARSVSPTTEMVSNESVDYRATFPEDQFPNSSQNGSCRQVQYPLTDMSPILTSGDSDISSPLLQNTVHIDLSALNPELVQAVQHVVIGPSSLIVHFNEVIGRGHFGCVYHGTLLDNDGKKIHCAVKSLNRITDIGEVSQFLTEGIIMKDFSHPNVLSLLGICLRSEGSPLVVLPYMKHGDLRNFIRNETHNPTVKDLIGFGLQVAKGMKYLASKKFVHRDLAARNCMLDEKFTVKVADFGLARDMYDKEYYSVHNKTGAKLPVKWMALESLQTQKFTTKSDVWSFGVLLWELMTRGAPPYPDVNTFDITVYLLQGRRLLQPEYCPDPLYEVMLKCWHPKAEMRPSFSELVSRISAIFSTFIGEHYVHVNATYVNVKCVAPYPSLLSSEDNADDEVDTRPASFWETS

This assay addresses T1, Met kinase (Homo sapiens, UniProt P08581).
T1 construct: 6His (N); purchased Upstate 14-526; host or cells: Sf21 insect cells (S. frugiperda), baculovirus
Nature of the assay: Met kinase inhibition (enzyme assay), flashplate method. Type of assay: biochemical. The source says:
Measurement of Met Kinase Activity
According to the manufacturer's data (Met, active, upstate, catalogue No. 14-526), Met kinase is expressed for the purposes of protein production in insect cells (Sf21; S. frugiperda) and subsequent affinity-chromatographic purification as “N-terminal 6His-tagged” recombinant human protein in a baculovirus expression vector.
The kinase activity can be measured using various available measurement systems. In the scintillation proximity method (Sorg et al., J. of Biomolecular Screening, 2002, 7, 11-19), the flashplate method or the filter binding test, the radioactive phosphorylation of a protein or peptide as substrate is measured using radioactively labelled ATP (^32P-ATP, ^33P-ATP). In the case of the presence of an inhibitory compound, a reduced radioactive signal, or none at all, can be detected. Furthermore, homogeneous time-resolved fluorescence resonance energy transfer (HTR-FRET) and fluoroescence polarisation (FP) technologies can be used as assay methods (Sills et al., J. of Biomolecular Screening, 2002, 191-214).
Flashplate Method (Met Kinase)
The test plates used are 96-well Flashplate® microtitre plates from Perkin Elmer (Cat. No. SMP200). The components of the kinase reaction described below are pipetted into the assay plate. The Met kinase and the substrate poly Ala-Glu-Lys-Tyr, (pAGLT, 6:2:5:1), are incubated for 3 hrs at room temperature with radioactively labelled ^33P-ATP in the presence and absence of test substances in a total volume of 100 μl. The reaction is terminated using 150 μl of a 60 mM EDTA solution. After incubation for a further 30 min at room temperature, the supernatants are filtered off with suction, and the wells are washed three times with 200 μl of 0.9% NaCl solution each time. The measurement of the bound radioactivity is carried out by means of a scintillation measuring instrument (Topcount NXT, Perkin-Elmer).
The full value used is the inhibitor-free kinase reaction. This should be approximately in the range 6000-9000 cpm. The pharmacological zero value used is staurosporin in a final concentration of 0.1 mM. The inhibitory values (IC50) are determined using the RS1_MTS program.
Kinase reaction conditions per well: • 30 μl of assay buffer • 10 μl of substance to be tested in assay buffer with 10% of DMSO • 10 μl of ATP (final concentration 1 μM cold, 0.35 μCi of ^33P-ATP) • 50 μl of Met kinase/substrate mixture in assay buffer; • (10 ng of enzyme/well, 50 ng of pAGLT/well)
50 mM HEPES • 3 mM magnesium chloride • 3 μM sodium orthovanadate • 3 mM manganese(II) chloride • 1 mM dithiothreitol (DTT)
pH=7.5 (to be set using sodium hydroxide)
60 mM Titriplex III (EDTA)
Met kinase: Upstate, Cat. No. 14-526, Stock 1 μg/10 μl; spec. activity 954 U/mg;
Poly-Ala-Glu-Lys-Tyr, 6:2:5:1: Sigma Cat. No. P1152
Pharmacological Data Met Kinase Inhibitions (Enzyme Assay)
For the compound `CCOC(=O)Nc1cccc(Cn2nc(-c3cccc(CNC(=O)CN4CCNCC4)c3)ccc2=O)c1` [A144], the half-inhibitory concentration (IC50) is 10 to 1000 nM.

With `CCOC(=O)Nc1cccc(Cn2nc(-c3cccc(CNC(=O)CCN4CCNCC4)c3)ccc2=O)c1` [A145], the concentration for half-maximal inhibition (IC50) was 10 to 1000 nM. The figure for `CCOC(=O)Nc1cccc(Cn2nc(-c3ccc(CC(=O)NCCCCN)cc3)ccc2=O)c1` [A146] is 10 to 1000 nM; for `CCOC(=O)Nc1cccc(Cn2nc(-c3ccc(CC(=O)NCCN)cc3)ccc2=O)c1` [A147] it is 10 to 1000 nM; for `CCOC(=O)Nc1cccc(Cn2nc(-c3ccc(CC(=O)NCCCN)cc3)ccc2=O)c1` [A148] it is 10 to 1000 nM. Regarding `CCOC(=O)Nc1cccc(Cn2nc(-c3ccc(-c4noc(C)n4)cc3)ccc2=O)c1` [A163, ethyl(3-{3-[4-(5-methyl-1,2,4-oxadiazol-3-yl)phenyl]-6-oxo-6H-pyridazin-1-ylmethyl}phenyl)carbamate], the IC50 lay within 10 to 1000 nM. `CCOC(=O)Nc1cccc(Cn2nc(-c3ccc(CN(Cc4ncc[nH]4)Cc4ncc[nH]4)cc3)ccc2=O)c1` [A171, ethyl{3-[3-(4-{[bis(1H-imidazol-2-ylmethyl)amino]methyl}-phenyl)-6-oxo-6H-pyridazin-1-ylmethyl]phenyl}carbamate] returned an IC50 of 10 to 1000 nM. `CCOC(=O)Nc1cccc(Cn2nc(-c3ccc(-c4nnn[nH]4)cc3)ccc2=O)c1` [A172, ethyl(3-{6-oxo-3-[4-(1H-tetrazol-5-yl)phenyl]-6H-pyridazin-1-ylmethyl}phenyl)carbamate]: the 50% inhibitory concentration (IC50) lay in the range of 10 to 1000 nM.

Broadly, the IC50 is the concentration at which inhibition is half-maximal. The low end stands for greater potency in that assay, the high end for weaker potency in that assay.
